The source of these data is patent publication US7998989B2, “2-Imino-1,3-thiazoline-based compounds and T-type calcium channel inhibitors containing the same” (Korea Institute of Science and Technology, priority 2007, dated 2011).

Structures can show the parent of a compound that is named as a salt.

T1 sequence (O43497 whole entry): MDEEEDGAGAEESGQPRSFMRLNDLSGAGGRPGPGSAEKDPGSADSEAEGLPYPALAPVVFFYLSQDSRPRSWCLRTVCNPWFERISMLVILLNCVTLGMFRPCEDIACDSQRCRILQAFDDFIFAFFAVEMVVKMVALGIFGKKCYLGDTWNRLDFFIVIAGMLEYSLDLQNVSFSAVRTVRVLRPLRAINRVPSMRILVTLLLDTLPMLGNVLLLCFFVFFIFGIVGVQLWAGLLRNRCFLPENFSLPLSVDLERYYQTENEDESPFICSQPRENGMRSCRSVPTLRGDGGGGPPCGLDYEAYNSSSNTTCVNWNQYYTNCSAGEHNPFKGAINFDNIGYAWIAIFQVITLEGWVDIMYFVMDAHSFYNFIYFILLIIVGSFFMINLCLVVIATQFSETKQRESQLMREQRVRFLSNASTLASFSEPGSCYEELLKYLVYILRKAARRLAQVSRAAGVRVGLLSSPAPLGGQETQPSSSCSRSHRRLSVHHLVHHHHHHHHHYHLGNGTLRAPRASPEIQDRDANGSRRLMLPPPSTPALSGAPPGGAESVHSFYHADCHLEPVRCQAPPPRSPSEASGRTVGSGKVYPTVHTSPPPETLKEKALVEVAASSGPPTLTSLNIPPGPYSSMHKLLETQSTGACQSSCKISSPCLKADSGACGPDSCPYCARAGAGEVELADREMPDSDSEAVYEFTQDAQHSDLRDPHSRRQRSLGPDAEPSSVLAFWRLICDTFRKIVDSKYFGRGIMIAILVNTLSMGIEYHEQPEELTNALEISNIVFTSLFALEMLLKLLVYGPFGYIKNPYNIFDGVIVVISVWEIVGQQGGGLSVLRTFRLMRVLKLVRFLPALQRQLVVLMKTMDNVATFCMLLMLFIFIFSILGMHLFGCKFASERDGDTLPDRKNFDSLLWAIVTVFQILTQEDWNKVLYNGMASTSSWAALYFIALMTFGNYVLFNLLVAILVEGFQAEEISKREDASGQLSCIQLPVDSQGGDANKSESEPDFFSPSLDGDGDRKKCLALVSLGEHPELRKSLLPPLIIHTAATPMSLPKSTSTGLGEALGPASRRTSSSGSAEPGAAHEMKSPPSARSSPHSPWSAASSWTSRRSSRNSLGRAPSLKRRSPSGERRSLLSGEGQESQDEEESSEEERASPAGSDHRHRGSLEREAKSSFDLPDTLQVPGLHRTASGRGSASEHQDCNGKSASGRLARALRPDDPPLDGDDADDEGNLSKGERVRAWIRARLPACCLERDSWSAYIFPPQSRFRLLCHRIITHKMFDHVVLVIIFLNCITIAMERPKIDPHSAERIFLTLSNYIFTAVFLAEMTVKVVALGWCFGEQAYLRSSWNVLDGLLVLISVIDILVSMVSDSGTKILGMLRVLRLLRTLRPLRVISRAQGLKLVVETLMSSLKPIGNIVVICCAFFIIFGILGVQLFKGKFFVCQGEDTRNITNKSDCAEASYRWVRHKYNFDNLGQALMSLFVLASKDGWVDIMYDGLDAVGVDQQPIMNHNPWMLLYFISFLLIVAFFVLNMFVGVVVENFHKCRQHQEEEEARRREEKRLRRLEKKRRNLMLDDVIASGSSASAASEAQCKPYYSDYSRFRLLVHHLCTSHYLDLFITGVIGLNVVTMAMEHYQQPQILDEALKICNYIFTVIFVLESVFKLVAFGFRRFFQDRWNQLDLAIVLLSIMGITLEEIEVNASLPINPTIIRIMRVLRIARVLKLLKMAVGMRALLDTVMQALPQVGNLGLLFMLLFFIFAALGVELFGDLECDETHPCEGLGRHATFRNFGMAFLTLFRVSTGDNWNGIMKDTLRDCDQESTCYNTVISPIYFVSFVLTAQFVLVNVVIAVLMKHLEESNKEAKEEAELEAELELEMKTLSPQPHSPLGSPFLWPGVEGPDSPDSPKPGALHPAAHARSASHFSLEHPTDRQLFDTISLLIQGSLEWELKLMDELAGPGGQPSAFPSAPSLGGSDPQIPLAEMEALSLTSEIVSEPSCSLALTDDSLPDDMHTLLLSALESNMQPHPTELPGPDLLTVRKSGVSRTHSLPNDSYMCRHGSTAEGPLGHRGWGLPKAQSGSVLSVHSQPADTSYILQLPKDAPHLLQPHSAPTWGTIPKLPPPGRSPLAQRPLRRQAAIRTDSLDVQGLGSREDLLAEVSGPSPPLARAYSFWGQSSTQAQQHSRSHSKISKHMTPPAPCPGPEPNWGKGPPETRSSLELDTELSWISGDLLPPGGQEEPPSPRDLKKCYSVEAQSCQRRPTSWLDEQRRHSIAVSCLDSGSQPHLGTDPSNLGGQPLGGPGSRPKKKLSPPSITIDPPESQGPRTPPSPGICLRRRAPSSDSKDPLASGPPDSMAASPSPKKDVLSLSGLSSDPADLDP

The first data set concerns the target T1, α1G T-type calcium channel (Homo sapiens, UniProt O43497).
T1 construct: host or cells: HEK293
The data set is described as follows: Assay for % inhibiting activity against T-type calcium channel using FDSS6000 (fluo-3 calcium imaging, KCl activation). Type of data set: cell-based. The settings on record: 10 μM; FDSS (% inhibition); comparative compounds where R6 is a phenyl group; read-out: FDSS. The method, then: In the present invention, in order to examine an efficient inhibitor against the T-type calcium channel, a primary assay for T-type calcium channel inhibiting activity was conducted by a high-efficient assay using FDSS6000, wherein mammal HEK293 cell lines (originated from human kidney carcinoma cells) that specifically express α1G of the T-type calcium channel was used for primary assay. Through the primary assay, compounds that show meaningful inhibition effects were selected. The selected compounds were used in a second assay for T-type calcium channel inhibiting activity using an electrophysiological whole cell patch clamp method, wherein mammal HEK293 cell lines (originated from human kidney carcinoma cells) that specifically express α1G of the T-type calcium channel was used for the second assay. Mibefradil, which had been developed as a T-type calcium channel inhibitor, was used as a reference.
At 12-24 hours before being used for this assay, cells of HEK293 cell line (α1G cell line: KCTC 10519BP, Korean Collection for Type Cultures), which stably express α1G T-type calcium channel and Kir2.1, were sub-cultured in a poly-L-lysine treated 96-well plate with the density of 4×10^4 per well using a 96-well cell dispenser (Titertek). On the day of assay, the 96-well plate to which the cells were attached was washed three times with HEPES buffer solution (150 mM of NaCl, 5 mM of KCl, 1 mM of MgCl2, 2 mM of CaCl2, 10 mM of HEPES, 10 mM of glucose; pH 7.4) using a 96-well plate automatic washing device (Bio Tek), then reacted with HEPES buffer solution containing 5 μM fluo-3/AM and 0.001% Pluronic F-127 at room temperature for 1 hour, to label with fluorescent dye, and then further washed two times with HEPES buffer solution.
Thereafter, at 10 minutes before the measurement using device FDSS6000, washing with HEPES buffer solution containing 10 mM CaCl2 was conducted once more, and the final volume was adjusted to 81 μl. Besides the above 96-well plate containing the cells, two additional drug 96-well plates were provided, wherein the 96-well plates contained an inhibiting drug and KCl (final concentration: 75 mM) for activating the T-type calcium channel, respectively. Since most of cell-based HTS devices are equipped with a liquid application system for injection of drug, but have no liquid sucking system, the inhibiting drug to be tested and KCl were respectively provided at a five-times higher concentration in 10 mM CaCl2 HEPES buffer solution at the amount of 27 μl, diluted by five-times at the final cell plate volume of 135 μl, and then used in this test. The concrete method of measurement using FDSS6000 was as follows. After recording the reference value of 20 seconds, the change of intracellular Ca^2+ concentration that was induced by treatment of the inhibiting drug to be tested for 75 seconds followed by administration of KCl was measured, wherein the percentage (%) inhibition effect of the test drug, through estimating the area of ratio value of 340/380 in the control without treatment of the test drug, was 100%. As a reference drug, 10 μM mibefradil was used.
For accurate calcium imaging, the light source of 4 xenon lamps in FDSS6000 were radiated to selectively expose the cells to the excitation wavelength (340 nm and 380 nm) by a computer-controlled filter wheel. Data was obtained at intervals of 1.23 seconds. The emitter fluorescence light inflowed through a long-pass filter was obtained as an average 340/380 ratio value for each well in the 96-wells by using a CCD camera and a digital fluorescence analyzer in FDSS6000. All image data and analyses were obtained by using a FDSS6000-exclusive program from Hamamatsu Photonics.
The obtained results are shown in Table 2 (the results from the compounds according to the examples of the present invention) and Table 3 (the results from the compounds according to the comparative example where R6 is a phenyl group) [FDSS (% inhibition) 10 μM].
On to `COc1ccc(N=C2SCC(CC(=O)Nc3ccc(Cl)cc3)N2C)cc1.Cl` (stereo not shown) [KHG21648, [2-(4-methoxyphenylimino)-3-methyl-1,3-thiazolidine-4-yl]-N-(4-chlorophenyl)-acetamide hydrochloride], for which the inhibition at 10 µM came out at 26.2%.

With `COc1cccc(N=C2SCC(CC(=O)Nc3ccc(Cl)cc3)N2C)c1.Cl` (stereo not shown) [KHG21649, [2-(3-methoxyphenylimino)-3-methyl-1,3-thiazolidine-4-yl]-N-(4-chlorophenyl)-acetamide hydrochloride], the inhibition at 10 µM is 27.8%.

Consider `CN1C(=Nc2ccc(Oc3ccccc3)cc2)SCC1CC(=O)Nc1ccc(Cl)cc1.Cl` (stereo not shown) [KHG21650, [2-(4-phenoxyphenylimino)-3-methyl-1,3-thiazolidine-4-yl]-N-(4-chlorophenyl)-acetamide hydrochloride], for which the inhibition at 10 µM is 2.59%.

Take `CN1C(=Nc2ccc(Cl)cc2)SCC1CC(=O)Nc1ccc(Cl)cc1.Cl` (stereo not shown) [KHG21652, [2-(4-chlorophenylimino)-3-methyl-1,3-thiazolidine-4-yl]-N-(4-chlorophenyl)-acetamide hydrochloride]: the inhibition at 10 µM was -7.7%.

The same data set, now with this note: 10 μM; HEK293 cells stably expressing α1G T-type calcium channel and Kir2.1; compounds of the examples.
As to `CCCCc1ccc(NC(=O)CC2CSC(=NC34CC5CC(CC(C5)C3)C4)N2C)cc1.Cl` (stereo not shown) [KHG24409], the “FDSS (% inhibition)/10uM” value came out at 57.43%.

Turning to `CN1C(=NC23CC4CC(CC(C4)C2)C3)SCC1CC(=O)Nc1ccc(Cl)cc1F.Cl` (stereo not shown) [KHG24411], the “FDSS (% inhibition)/10uM” value was found to be 62.67%.

Take `CN1C(=NC23CC4CC(CC(C4)C2)C3)SCC1CC(=O)Nc1ccccc1.Cl` (stereo not shown) [KHG24412]: the “FDSS (% inhibition)/10uM” value amounted to 56.4%.

Consider `CCCCN1C(=NC23CC4CC(CC(C4)C2)C3)SCC1CC(=O)Nc1ccc2c(c1)OCO2.Cl` (stereo not shown) [KHG24803, [2-(1-adamantylimino)-3-n-butyl-1,3-thiazolidine-4-yl]-N-(3,4-dioxymethylenephenyl)-acetamide hydrochloride], for which the “FDSS (% inhibition)/10uM” value came to 66.47%.

Regarding `Cl.O=C(CC1CSC(=NC23CC4CC(CC(C4)C2)C3)N1C1CC1)Nc1ccc2c(c1)OCO2` (stereo not shown) [KHG24804, [2-(1-adamantylimino)-3-cyclopropyl-1,3-thiazolidine-4-yl]-N-(3,4-dioxymethylenephenyl)-acetamide hydrochloride], the “FDSS (% inhibition)/10uM” value was 44.67%.

Take `CCCN1C(=NC23CC4CC(CC(C4)C2)C3)SCC1CC(=O)Nc1ccc2c(c1)OCO2.Cl` (stereo not shown) [KHG24837, [2-(1-adamantylimino)-3-n-propyl-1,3-thiazolidine-4-yl]-N-(3,4-dioxymethylenephenyl)-acetamide hydrochloride]: the “FDSS (% inhibition)/10uM” value is on record as 68.43%.

Take `CC(C)N1C(=NC23CC4CC(CC(C4)C2)C3)SCC1CC(=O)Nc1ccc2c(c1)OCO2.Cl` (stereo not shown) [KHG24838, [2-(1-adamantylimino)-3-isopropyl-1,3-thiazolidine-4-yl]-N-(3,4-dioxymethylenephenyl)-acetamide hydrochloride]: the “FDSS (% inhibition)/10uM” value was 53.33%.

Staying with this data set, now noted: 10 μM; HEK293 cells stably expressing α1G T-type calcium channel and Kir2.1; compounds of the examples; hydrochloride.
As to `CCc1ccc(NC(=O)CC2CSC(=NC3CCCC3)N2C)cc1.Cl` (stereo not shown) [KHG24093, (2-cyclopentylimino-3-methyl-1,3-thiazolidine-4-yl)-N-(4-ethylphenyl)-acetamide hydrochloride], the “FDSS (% inhibition)/10uM” value was determined as 34.77%.

For `CN1C(=NC23CC4CC(CC(C4)C2)C3)SCC1CC(=O)Nc1cc(Cl)cc(Cl)c1.Cl` (stereo not shown) [KHG24410], the “FDSS (% inhibition)/10uM” value is recorded as 64.09%.

Take `Cc1ccc(NC(=O)CC2CSC(=NC34CC5CC(CC(C5)C3)C4)N2C)c(Cl)c1.Cl` (stereo not shown) [KHG24413]: the “FDSS (% inhibition)/10uM” value came out at 62.08%.

In the case of `Cc1ccc(NC(=O)CC2CSC(=NC3CCCCC3)N2C2CCCCC2)cc1.Cl` (stereo not shown) [KHG24535, (2-cyclohexylimino-3-cyclohexyl-1,3-thiazolidine-4-yl)-N-(4-methylphenyl)-acetamide hydrochloride], the “FDSS (% inhibition)/10uM” value is 40.31%.

The same data set, now with this note: HEK293, 10 μM; HEK293 cells stably expressing α1G T-type calcium channel and Kir2.1; compounds of the examples; read-out: FDSS (% inhibition)/10uM.
As for `CN1C(=NC2CCCCC2)SCC1CC(=O)Nc1ccc2c(c1)OCO2` (stereo not shown) [KHG24086, (2-cyclohexylimino-3-methyl-1,3-thiazolidine-4-yl)-N-(3,4-methylenedioxyphenyl)-acetamide hydrochloride], the inhibition at 10 µM was found to be 30.5%.

`CN1C(=NC2CCCCC2)SCC1CC(=O)Nc1cc(F)ccc1F` (stereo not shown) [KHG24087, (2-cyclohexylimino-3-methyl-1,3-thiazolidine-4-yl)-N-(2,5-difluorophenyl)-acetamide hydrochloride]: the inhibition at 10 µM came to 35.4%.

With `CCc1ccc(NC(=O)CC2CSC(=NC3CCCC3)N2C)cc1.Cl` (stereo not shown) [KHG24092, (2-cyclopentylimino-3-methyl-1,3-thiazolidine-4-yl)-N-(4-ethylphenyl)-acetamide hydrochloride], the inhibition at 10 µM is 43.1%.

Take `CC(C)c1ccc(NC(=O)CC2CSC(=NC3CCCCC3)N2C)cc1` (stereo not shown) [KHG24110, (2-cyclohexylimino-3-methyl-1,3-thiazolidine-4-yl)-N-(4-isopropylphenyl)-acetamide hydrochloride]: the inhibition at 10 µM was found to be 53.6%.

On to `Cl.O=C(CC1CSC(=NC2CCCCC2)N1C1CCCCC1)Nc1ccc(Cl)cc1` (stereo not shown) [KHG24266, [2-cyclohexylimino-3-cyclohexyl-1,3-thiazolidine-4-yl]-N-(4-chlorophenyl)-acetamide hydrochloride], for which the inhibition at 10 µM was 33.6%.

As for `Cl.O=C(CC1CSC(=NC2CCCCC2)N1C1CCCCC1)Nc1cc(C(F)(F)F)cc(C(F)(F)F)c1` (stereo not shown) [KHG24307, (2-cyclohexylimino-3-cyclohexyl-1,3-thiazolidine-4-yl)-N-(3,5-ditrifluoromethylphenyl)-acetamide hydrochloride], the inhibition at 10 µM came out at 43.9%.

Take `Cc1ccc(NC(=O)CC2CSC(=NC3CCCCC3)N2C2CCCCC2)cc1.Cl` (stereo not shown) [KHG24313, (2-cyclohexylimino-3-cyclohexyl-1,3-thiazolidine-4-yl)-N-(4-methylphenyl)-acetamide hydrochloride]: the inhibition at 10 µM worked out at 31%.

For `CN1C(=NC2CCCCCC2)SCC1CC(=O)Nc1ccc(N)cc1` (stereo not shown) [KHG24448, (2-cycloheptylimino-3-methyl-1,3-thiazolidine-4-yl)-N-(4-aminophenyl)-acetamide hydrochloride], the inhibition at 10 µM stood at 47.4%.

For `CN1C(=NC2CCCCCC2)SCC1CC(=O)NCc1ccc(N)cc1` (stereo not shown) [KHG24449, (2-cycloheptylimino-3-methyl-1,3-thiazolidine-4-yl)-N-(4-aminobenzyl)-acetamide hydrochloride], the inhibition at 10 µM was 40.5%.

Turning to `CN1C(=NC2CCCCC2)SCC1CC(=O)Nc1cc(C(F)(F)F)cc(C(F)(F)F)c1` (stereo not shown) [KHG24529, (2-cyclohexylimino-3-methyl-1,3-thiazolidine-4-yl)-N-(3,5-ditrifluoromethylphenyl)-acetamide hydrochloride], the inhibition at 10 µM came to 58.2%.

On to `Cc1ccc(NC(=O)C2CSC(=NC3CCCCCC3)N2C)cc1` (stereo not shown) [KHG24628, (2-cycloheptylimino-3-methyl-1,3-thiazolidine-4-yl)-N-(4-methylphenyl)-carboxamide], for which the inhibition at 10 µM was 42.6%.

In the case of `CN1C(=NC2CCCCCC2)SCC1C(=O)Nc1cc(C(F)(F)F)cc(C(F)(F)F)c1` (stereo not shown) [KHG24630, (2-cycloheptylimino-3-methyl-1,3-thiazolidine-4-yl)-N-(3,5-ditrifluoromethylphenyl)-carboxamide], the inhibition at 10 µM came to 56.8%.

System in another data set: not given
Assay: not given
Conditions: not given
Turning to `COc1ccc(N=C2SCC(CC(=O)Nc3ccc(Cl)cc3)N2C)cc1.Cl` (stereo not shown) [KHG21648, [2-(4-methoxyphenylimino)-3-methyl-1,3-thiazolidine-4-yl]-N-(4-chlorophenyl)-acetamide hydrochloride], the melting point (commonly the temperature, or range, at which the solid turns liquid) lay within 250 to 253 °C.

On to `COc1cccc(N=C2SCC(CC(=O)Nc3ccc(Cl)cc3)N2C)c1.Cl` (stereo not shown) [KHG21649, [2-(3-methoxyphenylimino)-3-methyl-1,3-thiazolidine-4-yl]-N-(4-chlorophenyl)-acetamide hydrochloride], for which the melting point was in the range of 228 to 231 °C.

`CN1C(=Nc2ccc(Oc3ccccc3)cc2)SCC1CC(=O)Nc1ccc(Cl)cc1.Cl` (stereo not shown) [KHG21650, [2-(4-phenoxyphenylimino)-3-methyl-1,3-thiazolidine-4-yl]-N-(4-chlorophenyl)-acetamide hydrochloride] returned a melting point of 238 to 242 °C.

Turning to `CN1C(=Nc2ccc(Cl)cc2)SCC1CC(=O)Nc1ccc(Cl)cc1.Cl` (stereo not shown) [KHG21652, [2-(4-chlorophenylimino)-3-methyl-1,3-thiazolidine-4-yl]-N-(4-chlorophenyl)-acetamide hydrochloride], the melting point fell in the range of 239 to 242 °C.
